Converted amounts (≈) assume the structure as drawn. Read-outs that look alike come from different tables or passages of the source.
Legend:
Type in all cases: cell-based
[1] = test system: HaCaT cells (human keratinocytes); assay: Cellular viability test (MTT test); details: read-out: IC50 viability test (with MTT)
From the text: (§1) The eukaryotic cells used in our study are HaCaT cells (human keratinocytes), which were kindly supplied by the Pierre Fabre Institute (Toulouse, France); and MRC-5 cells (human embryonic fibroblasts), which were obtained from the company BioMérieux (Lyons, France). These cells are cultivated in DMEM (“Dulbecco's modified Eagle's medium”, Invitrogen 61965) for the HaCaT cells, and MEM (“modified Eagle's medium”, Invitrogen 41090); 10% of fetal calf serum (FCS, Invitrogen, 10270, Batch 40Q5150K) in a humid chamber at 37° C., under 5% CO2. The HaCaT and MRC-5 cells were seeded at 10^4 cells/well in 96-well plates (Sarstedt 831835). After 48 h of growth, the culture medium is withdrawn and replaced with the various “test” solutions (volume=100 μL). After contact time of 24, 48 and/or 168 H,the viability or cytotoxicity tests are carried out.
(§2) a) Cellular Viability Tests (MTT Test)
(§3) In order to evaluate the effect of the various compounds tested on the viability of HaCaT and MRC-5 cells, the MTT technique (3-[4,5-dimethylthiazol-2-yl]-2,5-diphenyltetrazolium bromide; MTT, Aldrich, 135038), described by Mosmann [Mosmann T. Rapid colorimetric assay for cellular growth and survival: application to proliferation and cytotoxicity assays. J Immunol Methods. 1983; 65: 55-63] and modified by Grare et al. [Grare M, Mourer M, Fontanay S, Regnouf-de-Vains J B, Finance C, Duval R E. In vitro activity of para-guanidinoethylcalix[4]arene against susceptible and antibiotic-resistant Gram-negative and Gram-positive bacteria. J Antimicrob Chemother. 2007; 60: 575-81], was used.
(§4) It is based on the reduction of yellow tetrazolium salts to purple crystals of formazan, mainly by mitochondrial dehydrogenases. The quantity of formazan formed is proportional to the number of live cells. After the contact times of 24, 48 and/or 168 h with the different concentrations of the test molecules, 10 nI, of MTT (at 5 mg/mL) is added to each well and the plates are placed at 37° C. After incubation for 4 H,the insoluble crystals of formazan that have formed are dissolved by adding 100 μL SDS to each well. The absorbance is measured at 540 nm with a reference wavelength at 690 nm, using an ELISA plate reader (Multiskan E X, Thermo Electron Corporation, France). The results are the mean of the values obtained for 8 wells per concentration and per unit time. Each experiment was carried out 3 times.

[2] = test system: MRC-5 cells (human embryonic fibroblasts); assay: Cellular viability test (MTT test); details: read-out: IC50 viability test (with MTT)
From the text: as §1, §2, §3, §4

[3] = test system: Pseudomonas aeruginosa ATCC 27853; assay: MIC by microdilution in liquid medium (CLSI / CA-SFM)
From the text: (§5) According to the joint recommendations: • of the “Comite de l′Antibiogramme de la Société Française de Microbiologie” (Antibiogram Committee of the French Society of Microbiology) (CA-SFM) [CA-SFM. Communique 2007 (Edition of January 2007). http://www.sfm.asso.fr] and, • of the “Clinical and Laboratory Standards Institute” (CLSI, formerly “National Committee for Clinical Laboratory Standards” or NCCLS) [NCCLS. 2003. Methods for dilution antimicrobial susceptibility tests for bacteria that grow aerobically; approved standard M7-A6, 6th ed. National Committee for Clinical Laboratory Standards, Wayne, Pa., USA.], five reference bacterial strains were used for the study: Escherichia coli ATCC 25922, Pseudomonas aeruginosa ATCC 27853, Staphylococcus aureus ATCC 25923 & ATCC 29213 and Enterococcus faecalis ATCC 29212.
(§6) The bacteria are cultivated either on Mueller-Hinton agar (Difco, 225250), or in Mueller-Hinton broth (Difco, 275730), at 35° C. [Grare M, Mourer M, Fontanay S, Regnouf-de-Vains J B, Finance C, Duval R E. In vitro activity of para-guanidinoethylcalix[4]arene against susceptible and antibiotic-resistant Gram-negative and Gram-positive bacteria. J. Antimicrob Chemother. 2007; 60: 575-81].
(§7) The various molecules tested were prepared in the form of aqueous solution at 10^−2 mol/L. The solutions used for the biological tests are freshly prepared, and stored for a week at most, at 4° C. The solutions are filtered through a filter with pores of 0.22 μm (Millex®GP; 0.22 μm; Millipore; France) before each test.
(§8) Procedure for determining the Minimum Inhibitory Concentration (MIC)
(§9) The minimum inhibitory concentrations (MIC) were determined by the standardized method of microdilution in liquid medium (96-well microplate, U-shaped bottom, Greiner), in Mueller-Hinton broth, with a final inoculum of 10^5-10^6 CFU/mL, depending on the bacterial species, in accordance with the recommendations of the CLSI.
(§10) For the determination of MIC, bacterial suspensions are prepared from an isolated colony, taken from a Mueller-Hinton agar, taken up in 5 mL of Mueller-Hinton broth. After 24 h of growth, the bacterial suspensions are diluted in sterile distilled water in order to obtain an inoculum of 10^5-10^6 CFU/mL. The purity of the bacterial suspensions is tested by isolation on agar and Gram staining.
(§11) The results are the mean value of 4 independent experiments.

[4] = test system: Staphylococcus aureus ATCC 29213; assay: as above; details: for Selectivity index (SI=IC50/MIC): S. aureus ATCC 29213, HaCaT cell lines, 24 h exposure; for MIC: Staphylococcus aureus
From the text: as §5, §6, §7, §8, §9, §10, §11

[5] = test system: Escherichia coli ATCC 25922; assay: as above; details: Escherichia coli
From the text: as §5, §6, §7, §8, §9, §10, §11

[6] = test system: Enterococcus faecalis ATCC 29212; assay: as above
From the text: as §5, §6, §7, §8, §9, §10, §11

[7] = test system: Staphylococcus aureus ATCC 25923; assay: as above; details: Staphylococcus aureus
From the text: as §5, §6, §7, §8, §9, §10, §11

[8] = ATCC27853, P. aeruginosa ATCC 27853, reference strain, read-out: MIC
[9] = ATCC29213, S. aureus ATCC 29213, reference strain, read-out: MIC
[10] = ATCC25922, E. coli ATCC 25922, reference strain, read-out: MIC
[11] = ATCC29212, E. faecalis ATCC 29212, reference strain, read-out: MIC
[12] = ATCC25923, S. aureus ATCC 25923, reference strain, read-out: MIC

Row | Compound | IC50 ([1]; 24 h) [µg/mL] | IC50 ([1]; 48 h) [µg/mL] | IC50 ([1]; 168 h) [µg/mL] | IC50 ([2]; MRC5, 24 h) [µg/mL] | IC50 ([2]; MRC5, 48 h) [µg/mL] | IC50 ([2]; MRC5, 168 h) [µg/mL] | MIC ([3]; ATCC27853) [µg/mL] | Selectivity index (SI=IC50/MIC) [4] | MIC ([4]; ATCC29213) [µg/mL] | MIC ([5]; ATCC25922) [µg/mL] | MIC ([6]; ATCC29212) [µg/mL] | MIC ([7]; ATCC25923) [µg/mL] | IC50 ([2]; MRC5, MRC-5, 24 h) [µg/mL] | IC50 ([2]; MRC5, MRC-5, 48 h) [µg/mL] | IC50 ([2]; MRC5, MRC-5, 168 h) [µg/mL] | MIC [3, 8] [µg/mL] | MIC [4, 9] [µg/mL] | MIC [5, 10] [µg/mL] | MIC [6, 11] [µg/mL] | MIC [7, 12] [µg/mL]
1 | N=C(N)c1ccc(OCCCCCCOc2ccc(C(=N)N)cc2)cc1 [HX, hexamidine] | 32 to 64 (≈ 90.3 to 181 µM) | 16 to 32 (≈ 45.1 to 90.3 µM) | 4 to 8 (≈ 11.3 to 22.6 µM) | 32 to 64 (≈ 90.3 to 181 µM) | 16 to 32 (≈ 45.1 to 90.3 µM) | 4 to 8 (≈ 11.3 to 22.6 µM) | 32 (≈ 90.3 µM) | ≧32 | < 1 | 8 (≈ 22.6 µM) | 2 (≈ 5.64 µM) | 4 (≈ 11.3 µM) |  |  |  |  |  |  |  | 
2 | [H]/N=C(\N/C(=N/[H])NCCCCCCNC(=N)NC(=N)Nc1ccc(Cl)cc1)Nc1ccc(Cl)cc1 [CHX, chlorhexidine] | 8 to 16 (≈ 15.8 to 31.7 µM) | 4 to 8 (≈ 7.91 to 15.8 µM) | 2 to 4 (≈ 3.96 to 7.91 µM) |  |  |  |  | 32-64 |  |  |  |  | 16 to 32 (≈ 31.7 to 63.3 µM) | 8 to 16 (≈ 15.8 to 31.7 µM) | 1 to 2 (≈ 1.98 to 3.96 µM) | 8 (≈ 15.8 µM) | 0.5 (≈ 0.989 µM) | 0.25 (≈ 0.495 µM) | 2 (≈ 3.96 µM) | 0.5 (≈ 0.989 µM)
3 | N=C(N)NCCc1ccc(OCCCCCCOc2ccc(CCNC(=N)N)cc2)cc1 [compound 6, 1,6-bis(4-(2-guanidinoethyl)phenoxy)hexane] | 4 to 8 (≈ 9.08 to 18.2 µM) | 4 to 8 (≈ 9.08 to 18.2 µM) | 1 to 2 (≈ 2.27 to 4.54 µM) |  |  |  |  | 16-32 |  |  |  |  | 8 to 16 (≈ 18.2 to 36.3 µM) | 4 to 8 (≈ 9.08 to 18.2 µM) | 0.5 to 1 (≈ 1.13 to 2.27 µM) | 16 (≈ 36.3 µM) | 0.25 (≈ 0.567 µM) | 4 (≈ 9.08 µM) | 8 (≈ 18.2 µM) | 0.5 (≈ 1.13 µM)
